US20050153998A1, “Tetrahydroisoquinoline or isochroman compounds” (priority 2003, published 2005)

Target: T1, human ORL1 receptor (Homo sapiens, UniProt P41146)
T1 construct: expressed in transfected cells; host or cells: HEK-293
Experiment: ORL1-receptor binding assay ([3H]nociceptin, SPA)
Details: human ORL1 receptor transfected HEK-293 cell membranes, 0.4 nM [3H]nociceptin; read-out: IC50 value with regard to binding activity for the ORL1 receptor
Procedure: The human ORL1 receptor transfected HEK-293 cell membranes were incubated for 45 min at 22° C. with 0.4 nM [^3H]nociceptin, 1.0 mg of wheat germ agglutinin-coated SPA beads and various concentrations of test compounds in a final volume of 200 μl of 50 mM HEPES buffer pH7.4 containing 10 mM MgCl2 and 1 mM EDTA. Non-specific binding was determined by the addition of 1 μM unlabeled nociceptin. After the reaction, the assay plate was centrifuged at 1,000 rpm for 1 min and then the radioactivity was measured by a Liquid Scintillation Counter.
Each percent NSB thus obtained was graphed as a function of compound concentration. A sigmoidal curve was used to determine 50% bindings (i.e., IC50 values).

T1 sequence (P41146 whole entry): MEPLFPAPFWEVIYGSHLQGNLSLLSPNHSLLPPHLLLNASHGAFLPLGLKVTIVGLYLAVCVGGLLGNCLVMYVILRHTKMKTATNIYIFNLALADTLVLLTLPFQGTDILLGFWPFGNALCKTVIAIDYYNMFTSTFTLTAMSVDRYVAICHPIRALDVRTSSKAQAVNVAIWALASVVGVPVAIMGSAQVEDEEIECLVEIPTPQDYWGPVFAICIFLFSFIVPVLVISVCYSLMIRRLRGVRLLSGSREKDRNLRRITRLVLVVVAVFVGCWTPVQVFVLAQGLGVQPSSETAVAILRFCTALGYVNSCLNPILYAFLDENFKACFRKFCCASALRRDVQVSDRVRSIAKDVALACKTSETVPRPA

| SMILES | IC50 |
| --- | --- |
| CN1C(=O)C2(CCN(CC3Cc4c(F)ccc(O)c4CN3)CC2)c2ccccc21 (centres unmarked) [Example 22, 1′-[(5-Fluoro-8-hydroxy-1,2,3,4-tetrahydroisoquinolin-3-yl)methyl]-1-methylspiro[indole-3,4′-piperidin]-2(1H)-one] | 4.9 nM |
| CN1CC2(CCN(CC3Cc4c(F)ccc(O)c4CN3)CC2)c2ccccc21 (centres unmarked) [Example 11, 5-Fluoro-3-[(1-methyl-1,2-dihydro-1′H-spiro[indole-3,4′-piperidin]-1′-yl)methyl]-1,2,3,4-tetrahydroisoquinolin-8-ol] | 7.4 nM |
